We go through 13 compounds from patent US9056851B2, “Thiolactone antibiotics” (priority 2011, dated 2015).

≈ marks a conversion by molar mass, not a printed value. Bounds are passed on as bounds.

Holding throughout (type): cell-based
The test system of experiment [1] is Y. pestis A1122. In words: microbe, parasite or virus in culture. The note with it: Yersinia pestis, A1122, read-out: MIC (μg/ml) Y. pestis.
The subject of experiment [2] is B. thialandensis Bt38. In words: MIC against B. thialandensis. The settings on record: read-out: MIC (μg/ml) B. thialandensis Bt.38 (efflux^−).
Experiment [3] deals with F. tularensis LVS. In words: microbe, parasite or virus in culture. The note with it: Francisella tularensis, read-out: MIC (μg/ml) F. tu.
Experiment [4] concerns M. tuberculosis H37Rv. As to the kind of experiment: MIC against M. tuberculosis. The settings on record: Mycobacterium tuberculosis; MIC99; H37Rv; read-out: MIC (μg/ml) M. tb (MIC99).
The subject of experiment [5] is S. aureus RN4220. In words: MIC against S. aureus RN4220 (MSSA). The note with it: Staphylococcus aureus, MIC90, read-out: MIC (μg/ml) Staph. aureus RN4220 MSSA.
The test system of experiment [6] is S. aureus BAA1762. In words: MIC against S. aureus BAA1762 (MRSA). The settings on record: Staphylococcus aureus; MIC90; read-out: MIC (μg/ml) Staph. aureus BAA1762 MRSA.
For experiment [7], the system named is B. pseudomallei Bp82z66. In words: microbe, parasite or virus in culture. The note with it: Burkholderia pseudomallei, BP82Z66, read-out: MIC (μg/ml) B. pseudomallei.

`C=C/C(C)=C/[C@@]1(C)SC(=O)C(CCCCn2cc(CNC(=O)[C@H](O)C(C)(C)CO)nn2)=C1O` [TLM33]: the MIC is 250 µg/mL (≈ 522 µM) in experiment [1]; 250 µg/mL (≈ 522 µM) in experiment [2]; 250 µg/mL (≈ 522 µM) in experiment [3]; above 64 µg/mL in experiment [5]; above 100 µg/mL in experiment [6]. The MIC99 in experiment [4] was above 100 µg/mL.
As to `C=C/C(C)=C/[C@@]1(C)SC(=O)C(CCCCn2cc(CNC(=O)c3ccc(NS(=O)(=O)c4ccc(F)cc4)cc3)nn2)=C1O` [TLM34], the MIC is 250 µg/mL (≈ 400 µM) in experiment [1]; 250 µg/mL (≈ 400 µM) in experiment [2]; 250 µg/mL (≈ 400 µM) in experiment [3]; above 64 µg/mL in experiment [5]; above 100 µg/mL in experiment [6]. In addition, the MIC99 in experiment [4] turned out to be 12.5 µg/mL (≈ 20 µM).
For the compound `C=C/C(C)=C/[C@@]1(C)SC(=O)C(C(C)=O)=C1O` [TLM35], the MIC in experiment [7] was determined as 155 µg/mL (≈ 649 µM); in experiment [3], 8.78 µg/mL (≈ 36.8 µM); in experiment [5], 64 µg/mL (≈ 269 µM); in experiment [6], 32 µg/mL (≈ 134 µM). Besides, the MIC99 in experiment [4] amounted to 12.5 µg/mL (≈ 52.5 µM).
Regarding `C=C/C(C)=C/[C@@]1(C)SC(=O)C(C(=O)C(F)(F)F)=C1O` [TLM36], the MIC in experiment [7] is 160 µg/mL (≈ 547 µM); in experiment [3], 98.1 µg/mL (≈ 336 µM); in experiment [5], above 64 µg/mL; in experiment [6], 64 µg/mL (≈ 219 µM). Besides, the MIC99 in experiment [4] is above 100 µg/mL.
The matching figures for `C=C/C(C)=C/[C@@]1(C)SC(=O)C(C(=O)OC)=C1O` [TLM37]: 160 µg/mL (≈ 631 µM), 58.2 µg/mL (≈ 229 µM), above 64 µg/mL, above 64 µg/mL and 100 µg/mL (≈ 393 µM).
For `C=C/C(C)=C/[C@@]1(C)SC(=O)C(C(=O)CCC)=C1O` [TLM38], in that order: 171 µg/mL (≈ 644 µM), 1.82 µg/mL (≈ 6.83 µM), 16 µg/mL (≈ 60.1 µM), 32 µg/mL (≈ 120 µM) and 12.5 µg/mL (≈ 46.9 µM).
The matching figures for `C=C/C(C)=C/[C@@]1(C)SC(=O)C(C(=O)c2ccccc2C(=O)O)=C1O` [TLM39]: 155 µg/mL (≈ 449 µM), 16 µg/mL (≈ 46.4 µM), 32 µg/mL (≈ 92.9 µM), 32 µg/mL (≈ 92.9 µM) and above 100 µg/mL.
Turning to `C=C/C(C)=C/[C@@]1(C)SC(=O)C=C1OCC(=O)NCCN=[N+]=[N-]` [TLM40], the MIC in experiment [7] is above 256 µg/mL; in experiment [3], 39.1 µg/mL (≈ 121 µM); in experiment [5], above 64 µg/mL; in experiment [6] it was above 64 µg/mL. Also, in experiment [4], the MIC99 was above 100 µg/mL.
Turning to `C=C/C(C)=C/[C@@]1(C)SC(=O)C=C1OCC(=O)NCCNC(=O)OC(C)(C)C` [TLM41], the MIC in experiment [7] is above 256 µg/mL; in experiment [3], 54.5 µg/mL (≈ 137 µM); in experiment [5] it was above 64 µg/mL; in experiment [6], above 64 µg/mL. Also, the MIC99 in experiment [4] was above 100 µg/mL.
For `C=C/C(C)=C/[C@@]1(C)SC(=O)C=C1OCC(=O)NCCn1cc(CNC(=O)c2ccc(NS(=O)(=O)c3ccc(F)cc3)cc2)nn1` [TLM42], the MIC in experiment [7] is 178 µg/mL (≈ 272 µM); in experiment [3] it was above 256 µg/mL; in experiment [5] it was above 64 µg/mL; in experiment [6], above 64 µg/mL. In addition, the MIC99 in experiment [4] was found to be 100 µg/mL (≈ 153 µM).
For the compound `C=C/C(C)=C/[C@@]1(C)SC(=O)C(C(=O)CCCCCCCCCCCCCCC)=C1O` [TLM43], the MIC worked out at 1.36 µg/mL (≈ 3.13 µM) in experiment [7], 0.5 µg/mL (≈ 1.15 µM) in experiment [5] and 1 µg/mL (≈ 2.3 µM) in experiment [6]. In experiment [4], the MIC99 was above 100 µg/mL.
In the case of `C=C/C(C)=C/[C@@]1(C)SC(=O)C(C(=O)CCCCN=[N+]=[N-])=C1O` [TLM44], the MIC in experiment [5] and in experiment [6] was 16 µg/mL (≈ 49.8 µM) each time.
`C=C/C(C)=C/[C@@]1(C)SC(=O)C(C(=O)CCCCc2ccc(-c3ccccc3)cc2)=C1O` [TLM45]: the MIC was found to be 4.58 µg/mL (≈ 10.6 µM) in experiment [7], 0.21 µg/mL (≈ 0.485 µM) in experiment [3], 0.5 µg/mL (≈ 1.16 µM) in experiment [5] and 2 µg/mL (≈ 4.62 µM) in experiment [6]. Also, the MIC99 in experiment [4] is 50 µg/mL (≈ 116 µM).
